Reference: PMC3023919 (Chemistry & biology, 2010)

How the values were obtained:
hCB2 C6.47(257)S mutant = conditions: competitive binding with [^3H]-WIN55212-2; ref Pei et al., 2008; cited from earlier work
hCB2 = conditions: read-out: hCB2 Ki; ref Rinaldi-Carmona et al., 1998; cited from earlier work
hCB2 WT = hCB2 WT (Homo sapiens, UniProt P34972); assay: Saturation-binding assay with [^3H]-CP55940; conditions: HEK293 membranes; mean (95% CI)
hCB2 C1.39(40)S = hCB2 C1.39(40)S (Homo sapiens, UniProt P34972, C40S); assay: Saturation-binding assay with [^3H]-CP55940; conditions: HEK293 membranes, mean (95% CI)
hCB2 C137S = hCB2 C137S (Homo sapiens, UniProt P34972, C134S); assay: Saturation-binding assay with [^3H]-CP55940; conditions: HEK293 membranes; mean (95% CI)
hCB2 C175S = hCB2 C175S (Homo sapiens, UniProt P34972, C175S); assay: Saturation-binding assay with [^3H]-CP55940; conditions: HEK293 membranes; mean (95% CI)
hCB2 C6.47(257)S = hCB2 C6.47(257)S (Homo sapiens, UniProt P34972, C257S); assay: Saturation-binding assay with [^3H]-CP55940; conditions: HEK293 membranes; mean (95% CI)
hCB2 C7.38(284)A = hCB2 C7.38(284)A (Homo sapiens, UniProt P34972, C284A); assay: Saturation-binding assay with [^3H]-CP55940; conditions: HEK293 membranes; mean (95% CI)
hCB2 C7.38(284)S = hCB2 C7.38(284)S (Homo sapiens, UniProt P34972, C284S); assay: Saturation-binding assay with [^3H]-CP55940; conditions: HEK293 membranes; mean (95% CI)
hCB2 C7.42(288)A = hCB2 C7.42(288)A (Homo sapiens, UniProt P34972, C288A); assay: Saturation-binding assay with [^3H]-CP55940; conditions: HEK293 membranes; mean (95% CI)
hCB2 C7.42(288)S = hCB2 C7.42(288)S (Homo sapiens, UniProt P34972, C288S); assay: Saturation-binding assay with [^3H]-CP55940; conditions: HEK293 membranes; mean (95% CI)
[1] = biological target: hCB2 C7.38(284)7.42(288)A (Homo sapiens, UniProt P34972, C284A/C288A); assay: Saturation-binding assay with [^3H]-CP55940; conditions: HEK293 membranes; mean (95% CI)
[2] = biological target: hCB2 C7.38(284)7.42(288)S (Homo sapiens, UniProt P34972, C284S/C288S); assay: Saturation-binding assay with [^3H]-CP55940; conditions: HEK293 membranes; mean (95% CI)
hCB2 C313S = hCB2 C313S (Homo sapiens, UniProt P34972, C313S); assay: Saturation-binding assay with [^3H]-CP55940; conditions: HEK293 membranes; mean (95% CI)
Sequence of hCB2 C313S (P34972 whole entry C313S): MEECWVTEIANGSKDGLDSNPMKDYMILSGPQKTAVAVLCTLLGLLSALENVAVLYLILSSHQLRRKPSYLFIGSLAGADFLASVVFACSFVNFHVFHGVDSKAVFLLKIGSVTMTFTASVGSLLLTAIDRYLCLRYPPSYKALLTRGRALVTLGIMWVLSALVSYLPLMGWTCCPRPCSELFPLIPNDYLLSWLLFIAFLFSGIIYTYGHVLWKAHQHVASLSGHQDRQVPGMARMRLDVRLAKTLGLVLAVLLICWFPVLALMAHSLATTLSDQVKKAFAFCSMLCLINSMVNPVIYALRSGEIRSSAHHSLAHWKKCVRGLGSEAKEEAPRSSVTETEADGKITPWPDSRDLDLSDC

Sequence of hCB2 C1.39(40)S (P34972 whole entry C40S): as the sequence (P34972 whole entry C313S) above, with C40S, S313C counted along it
Sequence of hCB2 C137S (P34972 whole entry C134S): as the sequence (P34972 whole entry C313S) above, with C134S, S313C counted along it
Sequence of hCB2 C175S (P34972 whole entry C175S): as the sequence (P34972 whole entry C313S) above, with C175S, S313C counted along it
Sequence of hCB2 C7.38(284)A (P34972 whole entry C284A): as the sequence (P34972 whole entry C313S) above, with C284A, S313C counted along it
Sequence of hCB2 C7.42(288)A (P34972 whole entry C288A): as the sequence (P34972 whole entry C313S) above, with C288A, S313C counted along it
Sequence of hCB2 C6.47(257)S (P34972 whole entry C257S): as the sequence (P34972 whole entry C313S) above, with C257S, S313C counted along it
Sequence of hCB2 C7.38(284)7.42(288)A (P34972 whole entry C284A/C288A): as the sequence (P34972 whole entry C313S) above, with C284A, C288A, S313C counted along it
Sequence of hCB2 C7.38(284)S (P34972 whole entry C284S): as the sequence (P34972 whole entry C313S) above, with C284S, S313C counted along it
Sequence of hCB2 C7.38(284)7.42(288)S (P34972 whole entry C284S/C288S): as the sequence (P34972 whole entry C313S) above, with C284S, C288S, S313C counted along it
Sequence of hCB2 WT (P34972 whole entry): as the sequence (P34972 whole entry C313S) above, with S313C counted along it
Sequence of hCB2 C7.42(288)S (P34972 whole entry C288S): as the sequence (P34972 whole entry C313S) above, with C288S, S313C counted along it

Row | Compound | increased affinity relative to WT hCB2 (hCB2 C6.47(257)S mutant) | Ki (hCB2) | [^3H]-CP55940 Bmax (hCB2 WT) | [^3H]-CP55940 Bmax (hCB2 C1.39(40)S) | [^3H]-CP55940 Bmax (hCB2 C1.39(40)S; listed as CP55940) | [^3H]-CP55940 Bmax (hCB2 C137S) | [^3H]-CP55940 Bmax (hCB2 C175S) | [^3H]-CP55940 Bmax (hCB2 C6.47(257)S) | [^3H]-CP55940 Bmax (hCB2 C7.38(284)A) | [^3H]-CP55940 Bmax (hCB2 C7.38(284)S) | [^3H]-CP55940 Bmax (hCB2 C7.42(288)A) | [^3H]-CP55940 Bmax (hCB2 C7.42(288)S) | [^3H]-CP55940 Bmax [1] | [^3H]-CP55940 Bmax [2] | [^3H]-CP55940 Bmax (hCB2 C313S)
1 | SR144528 | 2-3 fold | 600 pM | – | – | – | – | – | – | – | – | – | – | – | – | –
2 | CCCCCCC(C)(C)c1ccc([C@@H]2C[C@H](O)CC[C@H]2CCCO)c(O)c1 [[^3H]-CP55940] | – | – | 1.68 (1.61~1.74) pmol/mg | 5.45 (4.99~5.92) pmol/mg | 5.45 pmol/mg | 1.50 (1.31~1.70) pmol/mg | 1.69 (1.61~1.78) pmol/mg | 1.58 (1.50~1.66) pmol/mg | 1.15 (1.03~1.26) pmol/mg | 1.28 (1.21~1.36) pmol/mg | 1.93 (1.69~2.17) pmol/mg | 1.07 (1.01~1.13) pmol/mg | 1.12 (1.04~1.20) pmol/mg | 1.38 (1.28~1.48) pmol/mg | 1.07 (1.01~1.13) pmol/mg
